# Like-named read-outs stand apart in the source and are kept apart here.
# How the values were obtained:
# Type in all cases: cell-based
# [1] = tested on: SARS-CoV-2; assay: Neutral Red reduction of virus-induced cytopathic effect (primary CPE assay) in Vero 76 cells; conditions: Severe acute respiratory syndrome coronavirus 2, virus-inhibitory
# [2] = tested on: V-ATPase; assay: V-ATPase ELISA (Human V-Type Proton ATPase ELISA kit) on treated MDAMB231 cells; conditions: 100 nM (0.1 μM)/10,000 cells, 48 hours
# Protocol: An ELISA test was performed using Human V-Type Proton ATPase ELISA kit (My BioSource Catlog no: MBS911862) to determine the V-ATPase inhibitory effect of the compounds of the present invention.
# Procedure: 1.0 million cells of MDAMB231 (cell line rich in V-ATPase) were plated on 60 mm plates for 24 hours at 37° C. and 5% CO2. The cells were treated with the test compounds (Formula A to U) at a concentration of 100 nM (0.1 μM)/10,000 cells and incubated for 48 hours. After incubation the supernatant was discarded, the cells were washed with D.P.B.S. (Dulbecco's phosphate-buffered saline), scraped and stored at −80° C. for 48 hours. The cells were thawed, vortexed, homogenized for 7 minutes, followed by centrifugation for 3 minutes at 3000 R.P.M. The supernatant was taken for V-ATPase Assay.
# Standards and samples were pipetted into the wells. Antibody specific for V-ATPase was pre-coated onto a microplate. Any V-ATPase present in the standard /sample would get bound by the immobilized antibody. After the incubation period any unbound substances were removed by washing and a biotin-conjugated antibody specific for V-ATPase was added to the wells and plates were re-incubated at 37° C. and 5% CO2. After washing, avidin conjugated Horseradish Peroxidase (HRP) was added to the wells. Following a wash to remove any unbound avidin-enzyme reagent, a substrate solution was added to the wells and colour developed was in proportion to the amount of V-ATPase bound in the initial step. The colour development was stopped, and the optical density was measured at 450 nm spectrophotometrically. The concentration of V-ATPase was then calculated by substituting the optical density in the regression equation obtained from the standards. Percent (%) reduction in V-ATPase was calculated by subtracting the amount of V-ATPase obtained from the untreated/conc. of V-ATPase in untreated X100.
# [3] = Neutral Red toxicity assay, uninfected cultures; conditions: African green monkey, Vero 76 cells (uninfected monolayers), cell-inhibitory
# Protocol: Confluent or near-confluent cell culture monolayers of Vero 76 cells were prepared in 96-well disposable microplates the day before testing. Cells were maintained in MEM (Minimum Essential Medium Eagle) supplemented with 5% FBS (Fetal Bovine Serum). For antiviral assays the same medium was used but with FBS reduced to 2% and supplemented with 50-μg/ml gentamicin.
# Compounds were dissolved in DMSO, saline or the diluent. […] The test compound was prepared at four serial log10 concentrations, usually 0.1, 1.0, 10, and 100 μg/ml or μM. Lower concentrations were used when insufficient compound was supplied. Five microwells were used per dilution: three for infected cultures and two for uninfected toxicity cultures. Controls for the experiment consisted of six microwells that were infected and not treated (virus controls) and six that were untreated and uninfected (cell controls) on every plate. A known active drug was tested in parallel as a positive control drug using the same method as was applied for test compounds. The positive control was tested with every test run.
# Growth media was removed from the cells and the test compound was applied in 0.1 ml volume to wells at 2× concentration. Virus, normally at ˜60 CCID50 (50% cell culture infectious dose) in 0.1 ml volume is added to the wells designated for virus infection. Medium devoid of virus was placed in toxicity control wells and cell control wells. […] The plates were then stained with 0.011% neutral red for approximately two hours at 37° C. in a 5% CO2 incubator. The neutral red medium was removed by complete aspiration, and the cells may be rinsed 1× with phosphate buffered solution (PBS) to remove residual dye. The PBS was completely removed, and the incorporated neutral red was eluted with 50% Sorensen's citrate buffer/50% ethanol for at least 30 minutes. Neutral red dye penetrates into living cells, thus, the more intense the red color, the larger the number of viable cells present in the wells. The dye content in each well was quantified using a spectrophotometer at 540 nm wavelength. The dye content in each set of wells was converted to a percentage of dye present in untreated control wells using a Microsoft Excel computer-based spreadsheet and normalized based on the virus control. The 50% effective (EC50, virus-inhibitory) concentrations and 50% cytotoxic (CC50, cell-inhibitory) concentrations are then calculated by regression analysis. The quotient of CC50 divided by EC50 gives the selectivity index (SI) value.
# [4] = tested on: Human Peripheral Blood Lymphocytes; assay: MTT toxicity assay on normal cells; conditions: 48 hours
# Protocol: Toxicity studies of compounds of the present invention on normal cells The toxicity study was performed on Human Peripheral Blood Lymphocytes obtained differential centrifugation of defibrinated blood. MTT assay for compound of the present invention was performed to determine its toxicity. MTT assay is a simple and sensitive assay where, metabolic reducing activity of the cells is measured. It was carried out in the following manner.
# A required volume of cell suspension was prepared as per the cell plating efficiency. 200 μl of prepared cell suspension was added in labelled 96 well plates and the plates were placed in an incubator for 18-24 hours at 37° C. and 5% CO2. Then, 2 μl of respective compound dilution was added and the plates were placed in the incubator for 48 hours at 37° C. and 5% CO2. The suspension was aspirated from the plates and 100 μl of working MTT solution (0.5 mg/ml MTT prepared from 5 mg/ml MTT stock in 1× complete media) was added. The plates were incubated in the incubator for 4 hours at 37° C. and 5% CO2. The plates were spinned down, supernatant removed, 200 μl DMSO was added, mixed gently and placed in the incubator for 10 minutes at 37° C. and 5% CO2. The absorbance at 570 nm was read and percentage viability and IC50 value of the compounds was calculated using regression analysis.
# [5] = Cytotoxicity by Hoechst 33342 / Sytox orange staining; conditions: African green monkey, Vero E6 cells
# Protocol: The assay was done in a 96 well plate format in 3 wells for each sample. 1×10e4 Vero E6 cells were plated per well and incubated at 37° C. overnight for monolayer formation. Next day, cells were incubated with the test substance (TS) at the indicated concentration with final DMSO concentration being 0.5%. The Control cells were incubated with 0.5% DMSO only. 24 and 48 hours later, cells were stained with Hoechst 33342 and Sytox orange dye. Images were taken at 10×, 16 images per well, which covers 90% of the well area using ImageXpress Microconfocal (Molecular Devices). Hoechst 33342 nucleic acid stain is a popular cell-permanent nuclear counterstain that emits blue fluorescence when bound to dsDNA. It stains all the live and dead cells. Sytox orange dye stains the nucleic acid in the cells with compromised membranes. This stain is an indicator of cell death. First, the software will count total number of cells in the Hoechst image. In the Sytox image, it will count, among Hoechst positive cells, how many cells are positive for Sytox.
# [6] = tested on: SARS-CoV-2; assay: Antiviral screening by qRT-PCR in VeroE6 cells
# [7] = tested on: SARS-CoV-2; assay: Anti SARS-CoV-2 IC50 estimation by qRT-PCR in VeroE6 cells; conditions: Severe acute respiratory syndrome coronavirus 2, Vero C1008, 48 h
SMILES,EC50 [1],reduction of V-ATPase (%) [2],CC50 [3],IC50 (μM) [4],other results
"COc1cc2c(OC3OCC(OC)C(OC)C3O)c3c(c(-c4ccc5c(c4)OCO5)c2cc1OC)C(=O)OC3 (centres unmarked) [Compound of Formula A, 9-(benzo[d][1,3]dioxol-5-yl)-6,7-dimethoxy-4-(tetrahydro-3-hydroxy-4,5-dimethoxy-2H-pyran-2-yloxy)naphtho[2,3-c]furan-1(3H)-one]",> 0.1 µg/mL,13.31%,< 0.1 µg/mL,,
"CCOC(=O)c1c(C(=O)OCC)c(-c2ccc3c(c2)OCO3)c2cc(OC)c(OC)cc2c1OC1OCC(OC)C(OC)C1O (centres unmarked) [Compound of Formula D, diethyl 1-(benzo[d][1,3]dioxol-5-yl)-6,7-dimethoxy-4-(tetrahydro-3-hydroxy-4,5-dimethoxy-2H-pyran-2-yloxy)naphthalene-2,3-dicarboxylate]",32 µg/mL,18.2%,40 µg/mL,No activity (Nontoxic),
"O[C@H]1[C@H](O)COC(Oc2ccc(-c3ccc4c(c3)OCO4)c3ccccc23)[C@@H]1O (stereo partly drawn) [Compound of Formula F, (3R,4S,5R)-2-(1-(benzo[d][1,3]dioxol-5-yl)naphthalen-4-yloxy)-tetrahydro-2H-pyran-3,4,5-triol]",2.9 µg/mL,61.0%,32 µg/mL,,
"COc1cc2c(OCCCCN3CCOCC3)c3c(c(-c4ccc5c(c4)OCO5)c2cc1OC)C(=O)OC3 [Compound of Formula L, 4-(4-morpholinobutoxy)-9-(benzo[d][1,3]dioxol-5-yl)-6,7-dimethoxynaphtho[2,3-c]furan-1(3H)-one]",> 0.34 µg/mL,21.0%,0.34 µg/mL,No activity (Nontoxic),
"COc1cccc(-c2ccc(OCCN3CCOCC3)c3ccccc23)c1 [Compound of Formula P, 4-(2-(1-(3-methoxyphenyl)naphthalen-4-yloxy)ethyl)morpholine]",,18.27%,,No activity (Nontoxic),
"COc1ccc(-c2ccc(OCCN3CCOCC3)c3ccccc23)cc1OC [Compound of Formula U, 4-(2-(1-(3,4-dimethoxyphenyl)naphthalen-4-yloxy)ethyl)morpholine]",,16.57%,,No activity (Nontoxic),
"CCC(CC)COC(=O)[C@H](C)N[P@](=O)(OC[C@H]1O[C@@](C#N)(c2ccc3c(N)ncnn23)[C@H](O)[C@@H]1O)Oc1ccccc1 [Remdesivir, reference compound]",,,,,"viability at 24 h, 10 µM ([5]; 24 hours, read-out: % Cell viability 24 hours): 99.2%; viability at 48 h, 10 µM ([5]; 48 hours, read-out: % Cell viability 48 hours): 94.4%; inhibition at 10 µM ([6]; Severe acute respiratory syndrome coronavirus 2, Vero C1008, 24 h, read-out: % inhibition of virus replication 24 hours post infection E): 82.4%; inhibition at 10 µM ([6]; Severe acute respiratory syndrome coronavirus 2, Vero C1008, 24 h, read-out: % inhibition of virus replication 24 hours post infection N): 80.3%; inhibition at 10 µM ([6]; Severe acute respiratory syndrome coronavirus 2, Vero C1008, 48 h, read-out: % inhibition of virus replication 48 hours post infection E): 99.8%; inhibition at 10 µM ([6]; Severe acute respiratory syndrome coronavirus 2, Vero C1008, 48 h, read-out: % inhibition of virus replication 48 hours post infection N): 99.9%; IC50 ([7]; read-out: IC50 value (μM) E gene): 0.15 µM; IC50 ([7]; read-out: IC50 value (μM) N gene): 0.11 µM"
